Experimental findings from patent US9908877B2, “Imidazo[1,5-a]pyridinium ion fluorophores, and methods of making and using the same” (Indiana University Research and Technology Corporation, priority 2013, dated 2018) are described below.

Format in all cases: physicochemical
The nature of data set [1]: Ultraviolet-visible light spectrum (maximum absorbance wavelength). The method, then: Method for Obtaining an Ultraviolet-Visible Light Spectrum
Ultraviolet-visible (UV-Vis) Light spectra are obtained and recorded on an Agilent 8453 spectrophotometer using ChemStation software (Agilent Technologies, Inc., Santa Clara, Calif.).
(§1) The compounds were analyzed at 298° K according to the Method for Obtaining Ultraviolet-Visible Light Spectrum (30 μM acetonitrile) to obtain the maximum absorbance wavelength (λabs,max), Method for Obtaining Fluorescence Emission Spectrum (30 μM acetonitrile) to obtain the maximum emission wavelength (λem,max) and Method for Determining Quantum Yield (ΦF) (30 μM acetonitrile) at the concentration, in the solvent, and with the counter ion indicated in Table 1. The compounds included hydrogen at each R group that is not otherwise specified.
(§2) Compounds 6, 7, 9, 11-14 and 21 were analyzed according to: the Method for Obtaining Ultraviolet-Visible Light Spectrum to obtain the maximum absorbance wavelength (λabs,max), the Method for Obtaining Fluorescence Emission Spectrum to obtain the maximum emission wavelength (λem,max), and the Method for Determining Quantum Yield (ΦF) in the solvent and with the counter ion indicated in Table 3.

Data set [2] can be described thus: Fluorescence emission spectrum (maximum emission wavelength). On the procedure:
Method for Obtaining a Fluorescence Emission Spectrum
Fluorescence emission spectra are obtained and recorded on a QM-4-CW Spectrofluorometer using FeliX32 software (Photon Technology International, Inc., Birmingham, N.J.).
as §1, §2

A short description of data set [3]: Fluorescence quantum yield, integrating sphere. On the procedure:
Method for Determining Quantum Yield
Quantum yield is determined using an integrating sphere attached to a QM-4-CW Spectrofluorometer using FeliX32 software (Photon Technology International).
as §1, §2

Data set [4] in a line: Fluorescence response to trifluoroacetic acid / DBU in acetonitrile. The method, then:
A 30 μM solution of Compound 6 in acetonitrile was prepared by adding 99 μL of a stock solution of 3.04 mM Compound 6 in methanol to 10 mL of acetonitrile. An initial fluorescence emission spectrum of the solution was obtained and is illustrated by curve (i) in FIG. 1A.
A series of approximately 13.8 μL aliquots of trifluoroacetic acid (TFA) were then added to the 30 μM solution of Compound 6 until a total concentration of 60.0 mM of TFA was present in the solution. (The total amount of TFA present in the solution corresponded to 2000 equivalents of acid per equivalent of Compound 6.) The fluorescence emission spectrum of the resulting solution was obtained and is illustrated by curve (ii) in FIG. 1A.
A base, i.e., 1,8-diazabicyclo[5.4.0]undec-7-ene (DBU), was then added to the solution to neutralize the acid until a concentration of 90 mM DBU was obtained. The fluorescence emission spectrum of the resulting solution was obtained and is illustrated by curve (iii) in FIG. 1A. The fluorescence emission intensity at λem,max=565 nm increased as the amount of base present in the system increased and the fluorescence emission intensity at λem,max=405 nm decreased as the amount of base present in the system increased, which reflected Compound 6's ratiometric response to the changing base concentration in acetonitrile.
A 30 μM solution of Compound 7 in acetonitrile was prepared by adding 84 μL of a stock solution of 3.58 mM Compound 7 in methanol to 10 mL of acetonitrile. The emission spectrum of the solution was then obtained and is illustrated by curve (i) in FIG. 1B.
A series of approximately 13.8 μL aliquots of TFA were then added to the 30 μM solution of Compound 7 until a total concentration of 60.0 mM TFA was present in the solution (which corresponded to 2000 equivalents of acid per equivalent of Compound 7). The fluorescence emission spectrum of the solution was obtained and is illustrated by curve (ii) in FIG. 1B.
After the 60 mM TFA concentration was achieved, DBU was gradually added to the solution until a total concentration of 90 mM DBU was present in the solution. The fluorescence spectrum of the solution was obtained and is illustrated by curve (iii) in FIG. 1B.
An aliquot of 50 μL of trifluoroacetic acid was then added to the system, and the fluorescence emission spectrum was obtained and is illustrated by the curved line with a peak at 360 nm in FIG. 6A.
Compound 10 was placed in neat acetonitrile and its emission spectrum was monitored as trifluoroacetic acid was added to the acetonitrile in incremental amounts to achieve a solution that included an acid concentration ranging from 0 to 0.2 M. After each acid addition the sample was excited with radiation of a wavelength 340 nm, and its fluorescence emission spectrum was monitored. The results are illustrated in FIG. 7A.
The solution of Compound 10 in acetonitrile was titrated with trifluoroacetic acid (TFA). […] The first stage, which occurred with the addition of the initial aliquots of TFA, was a slight increase intensity at 580 nm, as illustrated in FIG. 7A. As more TFA was added to the system, a second transition occurred in which the emission at 580 nm began to decrease and as the emission at 400 nm began to increase, as illustrated in FIG. 7B. A plot of the emission intensity at 580 nm versus pH and at 400 nm versus pH is illustrated in FIG. 7C.
Compounds 10, 11, and 12 were then each individually added, at a concentration of 30 μM, to acetonitrile and the emission spectrum of each was monitored. The compounds emitted at 600 nm with an intensity of about 7.57×10^5 arbitrary units (a.u.) in neat acetonitrile. […] FIG. 8B illustrates the emission properties of Compound 12.

A short description of data set [5]: Fluorescence response to pH in buffered water. Conditions: for fluorescence emission in water at pH 7.5: water pH 7.5. The method, then:
Stock solutions of each compound (having a concentration of from 1-5 mM) were prepared by dissolving the corresponding salts of the compounds in methanol or 1V, N-dimethylformamide, and then diluting the same with acetonitrile or buffered water having a pH of from 2.5 to 7.5 derived from 0.2 M […] and 0.1 M citric acid, to achieve a sample solution having a compound concentration of 30.0 μM.
The emission spectrum for each sample was obtained. The results are illustrated by the plot in FIG. 2A.
The emission spectrum for each sample was obtained. […] The results are illustrated in the plot of FIG. 2B.
The fluorescence emission spectrum of Compound 8 in water having a pH of 2.5 was also obtained and is illustrated by the curved line with a peak at 360 nm in FIG. 5B.
Compounds 10, 11, and 12 were each individually added, at a concentration of 30 μM, to water having a pH=7.5 and the emission spectra of each were obtained. […] As the pH was decreased from 7.5 to 2.5 in 0.5 pH unit increments, fluorescence emission at 600 nm remained relatively nonexistent and the intensity of the fluorescence emission at 400 nm increased in correlation to the decrease in pH. FIG. 8A illustrates the emission properties of Compound 12.

Data set [6] can be described thus: Fluorescence response to hydrophobic environment (acetonitrile in water, SDS). On the procedure:
Compound 12 was placed in water and the intensity of its fluorescence emission at 600 nm was monitored as the concentration of acetonitrile was increased from 0 volume to volume (v/v) % to 100 v/v % in increments of 10 v/v %.
Compound 12 was added to an aqueous solution of sodium dodecylsulfate (SDS) and monitored for fluorescence emission at 600 nm.

Data set [7] can be described thus: pKa from fluorescence intensity versus pH. As to conditions: non-linear regression of fluorescence intensity versus pH, buffered water pH 2.5 to 7.5. On the procedure: Method for Determining pKa
A pKa value is determined by plotting fluorescence intensity (Imax) at emission maxima against pH and fitting the result to the non-linear expression in equation (1) (i.e., eq.(1)). In eq (1), a and b are the molar coefficient of the acid (HA) and base (A^−) form, respectively, and c is the combined overall concentration of the acid and base form. i.e., c=[HA]+[A^−].

Data set [8] is described as follows: Fluorescence response to pH in buffered water. As to conditions: 10 μM in water, pH = 7.5.
Where [9] appears, read: 30 μM acetonitrile, 298 K, Table 1.

As a reminder, the pKa is the pH at which an ionisable group is half protonated. Higher therefore signals a group that holds its proton tightly.

As for `CCN(CC)c1ccc(-n2cc3cccc(-c4cn(-c5ccc(C)cc5)nn4)[n+]3c2)cc1.[Cl-]` [Compound 12, 2-(4-(diethylamino)phenyl)-5-(1-(p-tolyl)-1H-1,2,3-triazol-4-yl)-2H-imidazo[1,5-a]pyridin-4-ium chloride], the “λabs, max Abs” value is on record as 340 nm in data set [1] (H2O pH = 2.2, 30 μM); 340 nm in data set [1] (H2O pH = 7.5, 30 μM); 340 nm in data set [1] (MeCN + 50 μL TFA, 30 μM); 340 nm in data set [1] (MeCN, 30 μM). Further, the “λem, max Em” value in data set [2] (H2O pH = 2.2, 30 μM) is on record as 400 nm; in data set [2] (MeCN + 50 μL TFA, 30 μM), 400 nm; in data set [2] (MeCN, 30 μM), 600 nm. The “[…]F (quantum yield)” value was 66% in data set [3] (H2O pH = 2.2, 30 μM); 0% in data set [3] (H2O pH = 7.5, 30 μM); 57% in data set [3] (MeCN + 50 μL TFA, 30 μM); 30% in data set [3] (MeCN, 30 μM). For the same compound, in data set [4] (30 μM in acetonitrile + 50 μL trifluoroacetic acid), the “emission intensity at 400 nm” value is listed as 1.34×10^6 a.u. In addition, the “emission intensity at 600 nm” value in data set [4] (30 μM in neat acetonitrile) is listed as “about 7.57×10^5 arbitrary units (a.u.)”. Further, the emission wavelength in data set [4] (30 μM in neat acetonitrile) is 600 nm. Also, in data set [4] (acetonitrile + 50 μL trifluoroacetic acid), the “emission wavelength λem,max” value is 400 nm. The “fluorescence emission in water at pH 7.5” value in data set [5] was “essentially no fluorescence emission”. The “fluorescence intensity at 600 nm” value in data set [6] (100 v/v % acetonitrile) is reported as 6.48×10^5 a.u; in data set [6] (water, 0 v/v % acetonitrile) it was 7.81×10^3 a.u.

For the compound `CCN(CC)c1ccc(-n2c[n+]3ccccc3c2-c2ccc(OC)cc2)cc1.[Cl-]` [Compound 7, 2-(4-(diethylamino)phenyl)-1-(4-methoxyphenyl)-2H-imidazo[1,5-a]pyridin-4-ium chloride], the “λabs, max Abs” value in data set [1] (H2O pH = 2.5, 30 μM) is on record as 340 nm; in data set [1] (H2O pH = 7.5, 30 μM), 340 nm; in data set [1] (MeCN + 13.8 uL TFA, 30 μM) it was 340 nm; in data set [1] (MeCN, 30 μM), 340 nm. For the same compound, the “λem, max Em” value in data set [2] (H2O pH = 2.5, 30 μM) came to 450 nm; in data set [2] (MeCN + 13.8 uL TFA, 30 μM), 450 nm. Besides, the “ΦF (quantum yield)” value in data set [3] (30 μM in acetonitrile with 60.0 mM TFA) worked out at 42%. Also, the “quantum yield (ΦF)” value in data set [3] (30 μM in acetonitrile, no acid, excited at 340 nm) came to 0.06%. For the same compound, the “[…]F (quantum yield)” value was 42% in data set [3] (H2O pH = 2.5, 30 μM); 0% in data set [3] (H2O pH = 7.5, 30 μM); 57% in data set [3] (MeCN + 13.8 uL TFA, 30 μM); 0% in data set [3] (MeCN, 30 μM). The compound further gave a pKa in data set [7] of 4.4. In data set [4] (30 μM in acetonitrile after addition of 60.0 mM TFA), the “increase in cyan fluorescent intensity” value is reported as “approximately 700 fold”. Moreover, the “λem,max (fluorescence emission)” value in data set [4] (30 μM in acetonitrile in the presence of trifluoroacetic acid (60.0 mM TFA)) was 450 nm. For the same compound, in data set [4] (acetonitrile without acid), the “fluorescence emission in neat acetonitrile” value is “essentially non-emissive”. In data set [4] (acetonitrile, 60 mM TFA then 90 mM DBU), the “fluorescence intensity after base” value is listed as “returned to zero”. Also, in data set [5] (buffered water, 298 K, pH from 7.5 to 2.5), the “λem,max of the emission that increases as pH decreases” value amounted to 450 nm. In addition, the “fluorescence emission in water at pH 7.5” value in data set [5] is “essentially non-emissive”.

Turning to `CCN(CC)c1ccc(-n2cc3cccc[n+]3c2)cc1` [Compound 2, 2-(4-(diethylamino)phenyl)-2H-imidazo[1,5-a]pyridin-4-ium hexafluorophosphate], the “λabs, max Abs” value in data set [1] (setting [9]) is listed as 330 nm. Moreover, the “λem, max Em” value in data set [2] (setting [9]) was found to be 515 nm. Also, in data set [3] (setting [9]), the “ΦF (quantum yield)” value is 30%. The “fluorescence λem” value in data set [5] (Example 13B: pH decreased to 2.5) is given as 360-375 nm; in data set [5] (water, pH 2.5), 360-375 nm. Moreover, the “emission maxima λem” value in data set [5] (Example 13B: printed 'neat acetonitrile having a pH of 7.5' / 'pH=7.5 in water') and in data set [8] was 550 nm each time.
